Reference: article PMC12504763, “Antiproliferation, 3D-multicellular spheroid and VEGFR-2 inhibitory properties of spiroindolin-2-ones with phosphonate function” (Scientific Reports, 2025)
Where two headings read alike, the source gives them in different places.

How the values were obtained:
[1] = test system: TNF-α; test: TNF-α inhibitory properties (ELISA), HCT116 cell lysate; format: cell-based, human; settings: for TNF-α pg/mL (± SEM) HCT116 / TNF-α % inhibition HCT116: at 10 μM; for TNF-α pg/mL (± SEM) HCT116: control 95.74 ± 0.5
[2] = test system: PaCa2 (pancreatic) cancer cell line; test: 2D-monolayer antiproliferation (MTT) against PaCa2; format: cell-based, human; settings: for 1/(observed property): 1/observed IC50 (μM), PaCa2; for IC50: Homo sapiens, PaCa-2, MTT, 72 h incubation, PaCa2 pancreatic, read-out: IC50, μM ± SEM PaCa2; for SI (selectivity index) PaCa2: IC50 of RPE1 normal cell/IC50 of PaCa2
[3] = molecular target: T1, COX-2 (Homo sapiens, UniProt P35354); test: biochemical; settings: for inhibition at 10 µM: 3 replicates, read-out: % Inhibition of COX-2 ± SEM; for SI (selectivity index, COX-2/COX-1): at 10 μM
T1 construct: purchased BioVision incorporated USA K548–100
T1 sequence (P35354 18-604): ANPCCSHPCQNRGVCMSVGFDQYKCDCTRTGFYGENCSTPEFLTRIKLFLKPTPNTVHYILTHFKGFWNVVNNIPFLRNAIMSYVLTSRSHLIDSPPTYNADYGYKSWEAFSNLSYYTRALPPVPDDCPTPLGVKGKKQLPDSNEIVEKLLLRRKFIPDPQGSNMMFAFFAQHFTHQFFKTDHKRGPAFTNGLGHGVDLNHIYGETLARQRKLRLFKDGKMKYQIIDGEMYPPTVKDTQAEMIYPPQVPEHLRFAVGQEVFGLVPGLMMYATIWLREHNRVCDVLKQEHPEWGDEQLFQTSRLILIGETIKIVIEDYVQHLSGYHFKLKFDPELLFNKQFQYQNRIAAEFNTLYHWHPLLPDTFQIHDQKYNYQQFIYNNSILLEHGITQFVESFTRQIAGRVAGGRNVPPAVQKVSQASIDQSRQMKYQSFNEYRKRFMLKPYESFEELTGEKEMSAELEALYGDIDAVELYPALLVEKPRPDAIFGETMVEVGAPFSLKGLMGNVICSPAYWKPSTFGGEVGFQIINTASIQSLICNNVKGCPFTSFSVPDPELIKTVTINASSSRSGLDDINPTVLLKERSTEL

[4] = molecular target: T2, VEGFR-2 (Homo sapiens, UniProt P35968); test: cell-based; format: cell-based; settings: for inhibition at 10 µM: PaCa-2, PaCa2; for VEGFR-2 pg/mL ± SEM PaCa2: at 10 μM, control 326.80 ± 1.9
T2 construct: endogenous in cells; host or cells: HCT116, PaCa2, MCF7 (human cancer cell lines, ATCC origin)
T2 sequence (P35968 20-1356): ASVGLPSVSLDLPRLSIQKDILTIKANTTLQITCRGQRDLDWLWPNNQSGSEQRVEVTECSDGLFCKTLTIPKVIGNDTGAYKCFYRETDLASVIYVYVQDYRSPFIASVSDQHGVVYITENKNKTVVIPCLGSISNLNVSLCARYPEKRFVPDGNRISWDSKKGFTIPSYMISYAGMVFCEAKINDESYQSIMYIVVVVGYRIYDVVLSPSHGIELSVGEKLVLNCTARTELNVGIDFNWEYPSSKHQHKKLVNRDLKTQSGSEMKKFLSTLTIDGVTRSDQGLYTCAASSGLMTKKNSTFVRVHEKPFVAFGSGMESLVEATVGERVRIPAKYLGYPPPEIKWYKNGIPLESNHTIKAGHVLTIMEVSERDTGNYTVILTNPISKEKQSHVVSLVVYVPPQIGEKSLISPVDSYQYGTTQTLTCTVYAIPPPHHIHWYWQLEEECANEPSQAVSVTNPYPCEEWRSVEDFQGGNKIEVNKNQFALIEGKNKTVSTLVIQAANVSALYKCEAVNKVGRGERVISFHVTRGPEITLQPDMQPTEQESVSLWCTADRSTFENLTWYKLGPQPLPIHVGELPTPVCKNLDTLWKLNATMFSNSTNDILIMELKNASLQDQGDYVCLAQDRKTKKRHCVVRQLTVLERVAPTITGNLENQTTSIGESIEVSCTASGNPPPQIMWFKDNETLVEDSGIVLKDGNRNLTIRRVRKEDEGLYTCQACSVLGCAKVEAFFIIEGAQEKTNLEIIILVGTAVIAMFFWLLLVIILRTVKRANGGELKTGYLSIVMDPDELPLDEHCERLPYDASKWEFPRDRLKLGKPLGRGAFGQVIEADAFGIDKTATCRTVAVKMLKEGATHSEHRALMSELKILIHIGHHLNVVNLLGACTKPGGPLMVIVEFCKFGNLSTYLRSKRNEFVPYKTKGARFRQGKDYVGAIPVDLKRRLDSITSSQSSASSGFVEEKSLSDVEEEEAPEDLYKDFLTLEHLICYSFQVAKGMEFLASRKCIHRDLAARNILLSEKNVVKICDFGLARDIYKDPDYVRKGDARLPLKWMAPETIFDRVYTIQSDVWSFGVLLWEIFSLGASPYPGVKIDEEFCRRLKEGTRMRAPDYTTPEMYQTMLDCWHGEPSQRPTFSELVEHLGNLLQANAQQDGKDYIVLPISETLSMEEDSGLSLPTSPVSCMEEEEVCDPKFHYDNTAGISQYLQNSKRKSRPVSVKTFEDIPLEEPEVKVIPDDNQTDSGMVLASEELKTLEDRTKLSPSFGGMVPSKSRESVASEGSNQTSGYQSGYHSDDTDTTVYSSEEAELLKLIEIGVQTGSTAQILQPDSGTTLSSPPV

[5] = test system: TNF-α; test: TNF-α inhibitory properties (ELISA), PaCa2 cell lysate; format: cell-based, human; settings: at 10 μM; for TNF-α pg/mL (± SEM) PaCa2: control 111.8 ± 2.0
[6] = test system: HCT116 (colon) cancer cell line; test: 2D-monolayer antiproliferation (MTT) against HCT116; format: cell-based, human; settings: for IC50: Homo sapiens, HCT-116; for SI (selectivity index) HCT116: IC50 of RPE1 normal cell/IC50 of HCT116
[7] = test system: TNF-α; test: TNF-α inhibitory properties (ELISA), MCF7 cell lysate; format: cell-based, human; settings: at 10 μM; for TNF-α pg/mL (± SEM) MCF7: control 83.26 ± 1.1
[8] = molecular target: T2, VEGFR-2; test: cell-based; format: cell-based; settings: for inhibition at 10 µM: MCF7; for VEGFR-2 pg/mL ± SEM MCF7: at 10 μM, control 258.70 ± 2.3
[9] = test system: RPE1 (normal human immortalized retinal pigment epithelial cell line); test: cells; format: cell-based; settings: for IC50: Homo sapiens, RPE-1, MTT, normal RPE1 cell, read-out: IC50, μM ± SEM RPE1
[10] = molecular target: T3, COX-1 (Ovis aries, UniProt P05979); test: biochemical; settings: 3 replicates, read-out: % Inhibition of COX-1 ± SEM
T3 construct: purchased BioVision incorporated USA K548–100
T3 sequence (P05979 25-600): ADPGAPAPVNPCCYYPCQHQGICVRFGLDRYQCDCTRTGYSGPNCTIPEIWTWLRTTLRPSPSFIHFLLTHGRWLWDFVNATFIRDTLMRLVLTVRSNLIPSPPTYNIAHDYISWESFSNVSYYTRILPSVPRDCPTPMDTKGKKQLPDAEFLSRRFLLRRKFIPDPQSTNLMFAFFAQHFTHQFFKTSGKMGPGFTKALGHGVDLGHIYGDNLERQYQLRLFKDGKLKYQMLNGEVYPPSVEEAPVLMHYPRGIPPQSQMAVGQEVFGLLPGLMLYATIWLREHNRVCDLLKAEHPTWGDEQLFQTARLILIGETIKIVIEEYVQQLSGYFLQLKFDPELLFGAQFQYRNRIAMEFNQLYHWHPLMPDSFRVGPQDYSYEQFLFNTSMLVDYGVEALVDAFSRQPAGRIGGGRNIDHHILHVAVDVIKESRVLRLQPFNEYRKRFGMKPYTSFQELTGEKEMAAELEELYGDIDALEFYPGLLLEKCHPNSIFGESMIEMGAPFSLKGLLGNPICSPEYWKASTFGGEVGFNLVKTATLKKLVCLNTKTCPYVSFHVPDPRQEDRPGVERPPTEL

[11] = test system: MCF7 (breast) cancer cell line; test: 2D-monolayer antiproliferation (MTT) against MCF7; format: cell-based, human; settings: for IC50: Homo sapiens, MTT, 72 h incubation, MCF7 breast, read-out: IC50, μM ± SEM MCF7; for SI (selectivity index) MCF7: IC50 of RPE1 normal cell/IC50 of MCF7
[12] = molecular target: T2, VEGFR-2; test: cell-based; format: cell-based; settings: for inhibition at 10 µM: HCT-116, HCT116; for VEGFR-2 pg/mL ± SEM HCT116: at 10 μM, control 317.80 ± 3.5
[13] = test system: A549 (lung) cancer cell line; test: 2D-monolayer antiproliferation (MTT) against A549; format: cell-based, human; settings: for IC50: Homo sapiens, MTT, 72 h incubation, A549 lung, read-out: IC50, μM ± SEM A549; for SI (selectivity index) A549: IC50 of RPE1 normal cell/IC50 of A549
[14] = MTT, 72 h incubation, HCT116 colon, read-out: IC50, μM ± SEM HCT116
[15] = log of observed IC50 (μM), HCT116, read-out: Log(observed property) (converted)

Compound | TNF-α pg/mL (± SEM) HCT116 [1] [pg/mL] | IC50 [2] [µM] | SI (selectivity index) PaCa2 [2] | inhibition at 10 µM [3] [%] | SI (selectivity index, COX-2/COX-1) [3] | inhibition at 10 µM [4] [%] | VEGFR-2 pg/mL ± SEM PaCa2 [4] [pg/mL] | TNF-α % inhibition PaCa2 [5] [%] | TNF-α pg/mL (± SEM) PaCa2 [5] [pg/mL] | IC50 [6, 14] [µM] | IC50 [6, 15] [µM] | SI (selectivity index) HCT116 [6] | TNF-α % inhibition MCF7 [7] [%] | TNF-α pg/mL (± SEM) MCF7 [7] [pg/mL] | inhibition at 10 µM [8] [%] | VEGFR-2 pg/mL ± SEM MCF7 [8] [pg/mL] | IC50 [9] [µM] | inhibition at 10 µM [10] [%] | IC50 [11] [µM] | SI (selectivity index) MCF7 [11] | other results
CCOP(=O)(OCC)N1C/C(=C\c2ccc(Br)cc2)C(=O)C2(C1)C(c1ccc(Br)cc1)CN(C)C21C(=O)Nc2ccccc21 (centres unmarked) [Compound 17l, Diethyl (E)-[5′′-(4-bromobenzylidene)-4′-(4-bromophenyl)-1′-methyl-2,4′′-dioxodispiro[indoline-3,2′-pyrrolidine-3′,3′′-piperidin]-1′′-yl]phosphonate] | 27.34 ± 1.1 | 6.15 ± 0.413 | 1.3 | 50.3 ± 2.3 | 0.92 | 73.5 | 86.45 ± 1.2 | 66.3 | 37.63 ± 0.8 | 4.16 ± 0.129 | 4.16 | 1.9 | 59.6 | 33.67 ± 1.7 | 71.6 | 73.50 ± 0.8 | 7.85 ± 0.284 | 61.6 ± 1.2 | 4.85 ± 0.082 | 1.6 | 1/(observed property) [2]: 0.1626; inhibition at 10 µM [12]: 73.5%; VEGFR-2 pg/mL ± SEM HCT116 [12]: 84.20 ± 1.5 pg/mL; IC50 [13]: 7.28 ± 0.316 µM; SI (selectivity index) A549 [13]: 1.1
CCOP(=O)(OCC)N1C/C(=C\c2cccs2)C(=O)C2(C1)C(c1cccs1)CN(C)C21C(=O)Nc2ccccc21 (centres unmarked) [Compound 17q, Diethyl (E)-[1′-methyl-2,4′′-dioxo-4′-(thiophen-2-yl)-5′′-(thiophen-2-ylmethylene)dispiro[indoline-3,2′-pyrrolidine-3′,3′′-piperidin]-1′′-yl]phosphonate] | 84.26 ± 0.8 | 13.4 ± 0.325 | 2.0 | 62.1 ± 3.1 | 0.93 | 58.5 | 135.70 ± 1.7 | 17.9 | 91.8 ± 2.7 | 11.8 ± 0.4 | 11.8 | 2.3 | 3.1 | 80.67 ± 2.8 | 43.7 | 145.70 ± 1.9 | 27.2 ± 0.813 | 61.3 ± 1.5 | 9.13 ± 0.314 | 3.0 | TNF-α % inhibition HCT116 [1]: 12.0%; 1/(observed property) [2]: 0.07485; inhibition at 10 µM [12]: 58.4%; VEGFR-2 pg/mL ± SEM HCT116 [12]: 132.30 ± 0.9 pg/mL; IC50 [13]: 24.51 ± 0.204 µM; SI (selectivity index) A549 [13]: 1.1
CCOP(=O)(OCC)N1C/C(=C\c2ccc(C)cc2)C(=O)C2(C1)C(c1ccc(C)cc1)CN(C)C21C(=O)Nc2ccc(Cl)cc21 (centres unmarked) [Compound 17o, Diethyl (E)-[5-chloro-1′-methyl-5′′-(4-methylbenzylidene)-2,4′′-dioxo-4′-(p-tolyl)dispiro[indoline-3,2′-pyrrolidine-3′,3′′-piperidin]-1′′-yl]phosphonate] | 86.34 ± 0.9 | 6.27 ± 0.148 | > 8.0 | 59.3 ± 2.4 | 1.14 | 90.3 | 31.64 ± 1.9 | 14.5 | 95.6 ± 2.2 | 3.76 ± 0.064 | 3.76 | > 13.3 | 1.7 | 81.85 ± 3.1 | 85 | 38.70 ± 0.4 | > 50 | 61.7 ± 3.4 | 4.67 ± 0.086 | > 10.7 | TNF-α % inhibition HCT116 [1]: 9.8%; 1/(observed property) [2]: 0.1594; selectivity index (SI) ([9]; IC50 against RPE1 compared to the tested cancer cell line(s), in words): high selectivity index; inhibition at 10 µM [12]: 84.8%; VEGFR-2 pg/mL ± SEM HCT116 [12]: 48.40 ± 0.6 pg/mL; IC50 [13]: 36 ± 1.15 µM; SI (selectivity index) A549 [13]: > 1.3
CCOP(=O)(OCC)N1C/C(=C\c2ccc(Cl)cc2)C(=O)C2(C1)C(c1ccc(Cl)cc1)CN(C)C21C(=O)Nc2ccccc21 (centres unmarked) [Compound 17h, Diethyl (E)-[5′′-(4-chlorobenzylidene)-4′-(4-chlorophenyl)-1′-methyl-2,4′′-dioxodispiro[indoline-3,2′-pyrrolidine-3′,3′′-piperidin]-1′′-yl]phosphonate] | 18.45 ± 1.1 | 6.35 ± 0.17 | 1.3 | 51.5 ± 3.1 | 1.06 | 94.4 | 18.25 ± 0.6 | 76.3 | 26.5 ± 0.7 | 3.08 ± 0.165 | 3.08 | 2.6 | 74.0 | 21.65 ± 3.1 | 79.6 | 52.70 ± 0.7 | 8.15 ± 0.675 | 53.5 ± 2.8 | 4.07 ± 0.054 | 2.0 | TNF-α inhibition fold of the standard ibuprofen ([1]; 10 μM): 3.6 fold; TNF-α inhibition fold of the standard indomethacin ([1]; 10 μM): 1.9 fold; TNF-α % inhibition HCT116 [1]: 80.7%; potency fold of the standard drug 5-fluorouracil ([6]; HCT116, ratio of IC50): 6.6 fold; potency fold of the standard drug sunitinib ([6]; HCT116, ratio of IC50): 3.1 fold; inhibition at 10 µM [12]: 83.7%; VEGFR-2 pg/mL ± SEM HCT116 [12]: 51.74 ± 1.5 pg/mL; IC50 [13]: 4.15 ± 0.288 µM; SI (selectivity index) A549 [13]: 2.0
